Data from patent publication US20120121554A1, “HMG-COA SECONDARY METABOLITES AND USES THEREOF” (EDENSPACE SYSTEMS CORPORATION, priority 2009, published 2012).

What was measured:
HMG-CoA reductase = target: T1, HMG-CoA reductase (Rattus norvegicus, UniProt P51639); settings: compound at 10^−3 M; cited from earlier work
T1 sequence (P51639 1-887): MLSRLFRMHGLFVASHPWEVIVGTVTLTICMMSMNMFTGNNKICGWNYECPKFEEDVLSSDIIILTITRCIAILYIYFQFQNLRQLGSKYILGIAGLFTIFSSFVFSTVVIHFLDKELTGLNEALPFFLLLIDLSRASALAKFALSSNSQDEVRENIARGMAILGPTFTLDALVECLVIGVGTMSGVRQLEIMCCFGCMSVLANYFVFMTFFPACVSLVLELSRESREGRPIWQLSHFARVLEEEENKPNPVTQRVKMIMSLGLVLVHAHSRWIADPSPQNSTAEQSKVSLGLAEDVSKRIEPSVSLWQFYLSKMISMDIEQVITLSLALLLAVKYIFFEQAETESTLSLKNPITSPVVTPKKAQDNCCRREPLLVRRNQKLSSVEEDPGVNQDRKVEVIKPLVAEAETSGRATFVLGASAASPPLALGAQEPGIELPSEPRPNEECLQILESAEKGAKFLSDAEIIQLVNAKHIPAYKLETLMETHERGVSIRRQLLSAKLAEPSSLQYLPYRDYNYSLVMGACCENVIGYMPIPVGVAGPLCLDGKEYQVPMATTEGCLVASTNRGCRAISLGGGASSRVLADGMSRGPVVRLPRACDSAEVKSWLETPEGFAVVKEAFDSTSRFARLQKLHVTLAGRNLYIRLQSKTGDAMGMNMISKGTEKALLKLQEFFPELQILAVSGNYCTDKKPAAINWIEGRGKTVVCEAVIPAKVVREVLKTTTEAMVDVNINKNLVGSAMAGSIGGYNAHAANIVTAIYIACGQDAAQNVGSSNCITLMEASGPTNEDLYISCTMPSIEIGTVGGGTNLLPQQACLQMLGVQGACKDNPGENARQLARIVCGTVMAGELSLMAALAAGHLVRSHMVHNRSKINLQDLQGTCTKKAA

[1] = tested on: serum cytokines and chemokines; assay: Serum cytokine and chemokine levels in EAE mice (multiplex ELISA array); format: in vivo, mouse
Protocol: FIG. 7 depicts serum levels of cytokines and chemokines in various treatment groups (PBS only control, PLP-BPI-treated, and HMG-treated) 14 days after immunization with PLP139-151/CFA to induce EAE. Data represent the mean±standard deviation. Statistical significance was determined by one way Analysis of Variance followed by post-hoc testing using the Tukey test.
Blood samples were collected from the facial vein in PBS-, HMG-, and PLP-BPI-treated mice on day 14 and day 28 (n=3 per group). Blood samples were allowed to clot overnight at 2-8° C. before centrifuging for 10 min at 2000×g. Serum was removed and stored at −80° C. until measurement of cytokines and chemokines was performed by a commercial analytical services laboratory.
The levels of key cytokines and chemokines were measured by multiplex ELISA array by a commercial analytical laboratory.

[2] = tested on: Experimental autoimmune encephalomyelitis (EAE) in SJL/J mice; assay: EAE mouse model, clinical assessment (day of onset); format: in vivo
Protocol: To induce EAE, five-to-seven week old SJL/J (H-2S) female mice (Charles River; Wilmington, Mass.) were immunized subcutaneously with 200 μg PLP139-151 in a 0.2 mL emulsion comprised of equal volumes of phosphate-buffered saline (PBS) and complete Freund's adjuvant (CFA) containing killed Mycobacterium Tuberculosis strain H37RA (at a final concentration of 4 mg/ml, Difco, Detroit, Mich.). PLP139-151/CFA was administered to regions above the shoulder and the flanks (4 sites total; 50 μL at each injection site). In addition, 200 ng of pertussis toxin (List Biological Laboratories, Campbell, Calif.) was injected intraperitoneally on the day of immunization and 2 days post immunization.
Mice received intravenous injections of vehicle (PBS), HMG (25 μmol/mouse), or PLP-BPI (100 nmol/mouse) on days 4, 7, and 10 (n=6 per treatment group).

CCCCCCCCCCCCCCCCCCCC(O)(CC(=O)O)CC(=O)O [3m]
in vitro inhibition of HMGR @10^−3 M (HMG-CoA reductase): 86

CCCCCCCCCCCCCCCC(O)(CC(=O)O)CC(=O)O [3j]
in vitro inhibition of HMGR @10^−3 M (HMG-CoA reductase): 99

CC(O)(CC(=O)O)CC(=O)O [HMG, 3-hydroxy-3-methylglutaric acid]
Serum RANTES level ([1]; day 14, compared to PBS group): statistically significant reductions
Serum IFN gamma concentration ([1]; day 14, compared to PBS- or PLP-BPI-treated mice): much lower
Serum IL-17 level ([1]; day 14, compared to PLP-BPI-treated animals): significantly lower
Inflammation as measured by levels of some cytokines ([1]; day 14, versus PBS only): reduced inflammation
Serum IL-1 alpha level ([1]; day 14 after immunization, compared to PBS group): statistically significant reductions
Disease phenotype as compared to vehicle only ([2]; EAE mice, i.v. on days 4, 7, 10): ameliorated disease phenotype
Delay of average day of onset of EAE as compared to PBS treated mice ([2]; SJL/J mice, HMG 25 μmol/mouse i.v. on days 4, 7, 10): about 2 days
Day of onset of EAE (day when EAE clinical score is one or more) ([2]; SJL/J mice, i.v. on days 4, 7, 10, HMG 25 μmol/mouse, PLP-BPI 100 nmol/mouse, PBS group day 11): 13 days
